“Also recorded” adds a separate entry of the source. Where two headings read alike, the source gives them in different places. One block for each compound: values may come before it.
Tests used:
[1] = system: mouse sperm adhesion to eggs; details: Litscher et al. 1995; cited from earlier work
CD22 = details: cited from earlier work
[2] = system: L-selectin-dependent lymphocyte adhesion to cardiac endothelium; experiment: Stamper-Woodruff binding assay: lymphocyte adhesion to endothelium of rejecting cardiac transplants; format: cell-based, rat; details: rejecting cardiac allografts
From the text: The inhibition of lymphocyte adhesion to cardiac endothelium during acute rejection episodes by oligosaccharides was examined using the family of oligosaccharides synthesized by enzyme-aided synthesis in Example 2: monovalent sLex tetrasaccharide (1), divalent sLex decasaccharide (4) and tetravalent sLex 22-meric oligosaccharide (9) and their non-fucosylated sialyl lactosamine analogues (3, 8). […] Concomitantly the non-fucosylated sialyl-lactosamine glycans were without effect.
In parallel experiments the capacity of the tetravalent sLex glycans 9 and 17, and of the nonfucosylated analogs glycan 8 and glycan 16, were compared in inhibiting L-selectin-dependent lymphocyte adhesion to cardiac endothelium during acute rejection. The lymphocytes were preincubated for 30 min with varying concentrations of the oligosaccharides and used thereafter in the Stamper-Woodruff binding assay in the incubation media as described in Example 1.

[3] = system: L-selectin-dependent lymphocyte adhesion to cardiac endothelium; details: lymphocytes and rejecting rat heart endothelium, Turunen et al. 1995; cited from earlier work
[4] = system: P-selectin mediated inflammation; details: low concentrations; cited from earlier work
inflammation = details: cited from earlier work
[5] = system: L-selectin-dependent lymphocyte adhesion to peritubular capillary endothelium (PTCE); experiment: Stamper-Woodruff binding assay: lymphocyte adhesion to peritubular capillary endothelium of rejecting kidney allografts; details: for inhibition of lymphocyte binding to PTCE (in words) / inhibitory capacity compared with other oligosaccharides (in words): rejecting kidney allografts; for IC50: read-out: IC50, inhibitory concentration preventing 50% of binding, L-selectin-dependent lymphocyte binding, rejecting rat kidney transplant
From the text: The animal models for cardiac transplant rejection and kidney transplant rejection utilized inbred WF (RT1^v) and DA (RT1^a) rat strains that were maintained in a colony and regularly tested for intrastrain acceptance of transplants as well as for the absence of intrastrain mixed lymphocyte culture. DA transplants into WF recipients were allografts, WF grafts to WF and DA grafts to DA served as syngeneic controls.
Small pieces of the removed syngeneic (DA to DA and WF to WF), allogeneic (DA to WF) transplants were mounted in Tissue Tek medium (Lab-Tek Productions, Naperville, Ill.) and snapfrozen in liquid nitrogen. Eight μm thick frozen sections were prepared within one hour prior to the use of the sections in the lymphocyte--endothelium binding assay (Renkonen, R. et al., Transplantation 47:577-579 (1989); Renkonen, R. et al., Am. J. Pathol. 137:643-651 (1990); Turunen J. P. et al., Transplantation 54:1053-1058 (1992); Turunen, J. P. et al., Eur. J. Immunol. 24:1130-1136 (1994); Turunen, J. P. et al., J. Exp. Med., 182:1133-1142 (1995)).
Single cell suspensions of mesenterical lymph node lymphocytes were made by mechanical disaggregation in RPMI 1640 medium (Gibco, Grand Island, N.Y.) supplemented with Hepes (25 mM) and 0.5% fetal calf serum and the cells were passed through a 50 μm pore size mesh. Over 99% of the cells were lymphocytes, and the lymphocyte population consisted of 80-90% CD3-positive T cells, 50-60% CD4-positive T cells, 25-35% CD8-positive T cells and 10-20% CD19-positive B cells, as analyzed by flow cytometric analyses and immunoperoxidase stainings from cytocentrifuge preparations.
3×10^6 cells in 100 μl of the medium were plated on top of the tissue sections using a wax pen circle to avoid escape of the fluid. The sections were rotated horizontally on a shaker at 60 rpm for 30 minutes at +4° C. After incubation, the medium was gently tapped away by an absorbent paper and the slides were fixed in 1.5% cold glutaraldehyde overnight. The slides were stained with thionine for 30 min. The excess thionine was gently washed away from the slides in PBS, and the slides were mounted with PBS-glycerol (1:1) or Aquamount Mountant, (BHD Limited, Poole, England). From these preparations the number of lymphocytes bound to various structures was determined. At least 10-20 high power fields were analyzed from each sample and 3-4 animals were included in each group.
The oligosaccharides were dissolved in the binding buffer, and the lymphocytes were incubated in these solutions for 30 min in +4° C. Thereafter, the lymphocytes at the saccharide solutions were added to the Stamper-Woodruff binding assay without further washings and the assay was conducted as described above.
The lymphocytes were, or were not, pretreated for 30 min with various oligosaccharide constructs and added to the Stamper-Woodruff binding assay. After a 30 min binding assay the loose cells were washed away and the number of bound cells were determined.
The binding assays consisted of three experiments performed on separate days.

adhesion = details: Stoolman et al. 1984; cited from earlier work
[6] = listed as disialylated and difucosylated branched polylactosamine decasaccharide

Compound: CC(=O)NC1C(O)OC(CO)C(OC2OC(CO)C(O)C(OC3OC(CO)C(OC4OC(CO)C(O)C(OC5OC(CO)C(O)C(O)C5O)C4O)C(O)C3NC(C)=O)C2O)C1O (stereo not drawn) [Galα1-3Galβ1-4GlcNAcβ1-3Galβ1-4GlcNAc]
inhibition of mouse sperm adhesion to eggs [1]: does not

Compound: CC(=O)N[C@H]1[C@H]([C@H](O)[C@H](O)CO)O[C@@](OC[C@H]2O[C@@H](O[C@H]3[C@H](O)[C@@H](NC(C)=O)C(O)O[C@@H]3CO)[C@H](O)[C@@H](O)[C@H]2O)(C(=O)O)C[C@@H]1O (stereo partly drawn) [NeuAca2-6GalB1-4GlcNAc]
binding / affinity to CD22 (CD22): binds specifically

Compound: NeuAcα2-3Galβ1-4(Fucα1-3)GlcNAc [Glycan 1]
inhibition of lymphocyte adhesion to cardiac endothelium (in words) [2]: significantly reduce lymphocyte binding
published Stamper-Woodruff data compared with the present ones [3]: quite similar to the present ones
inhibition of short-term P-selectin mediated inflammation [4]: inhibiting short-term P-selectin mediated inflammation
anti-inflammatory activity in vivo (inflammation): anti-inflammatory activity in vivo
decrease of lymphocyte adhesion / prevented L-selectin-dependent lymphocyte binding ([5]; at 0.5 μM): 39%
inhibition of lymphocyte binding to PTCE (in words) [5]: able to inhibit the lymphocyte binding to PTCE significantly

inhibition of lymphocyte adhesion to cardiac endothelium (in words) [2]: significantly reduce lymphocyte binding
IC50 [5]: 1000 nM
IC50 [5, 6]: 500 nM
inhibitory capacity compared with other oligosaccharides (in words) [5, 6]: less effective inhibitor
Compound: NeuAcα2-3Galβ1-4(Fucα1-3)GlcNAcβ1-3(NeuAcα2-3Galβ1-4(Fucα1-3)GlcNAcβ1-6)Galβ1-4GlcNAc [Glycan 4]
published Stamper-Woodruff data compared with the present ones [3]: quite similar to the present ones
inhibition of lymphocyte binding to PTCE (in words) [5]: able to inhibit the lymphocyte binding to PTCE significantly
inhibitory capacity compared with other oligosaccharides (in words) [5]: slightly weaker inhibitor than 28; also recorded: lesser inhibitory capacity than the alditol 28

inhibition of lymphocyte binding to PTCE (in words) ([5]; listed as non-fucosylated O-glycosidic oligosaccharide alditol): did not possess any inhibitory activity
Compound: NeuAcα2-3Galβ1-4GlcNAcβ1-3(NeuAcα2-3Galβ1-4GlcNAcβ1-6)Galβ1-4GlcNAcβ1-6(Galβ1-3)GalNAc-ol [Glycan 26]
inhibition of lymphocyte binding to PTCE (in words) [5]: practically devoid of inhibitory activity; also recorded: did not inhibit the lymphocyte binding at all; also recorded: did not possess any inhibitory activity

Compound: fucoidin
concentration that blocked adhesion (adhesion): in the nM range
